We go through 1 compound from patent US20190002427A1, “STEREOISOMER OF FLOCOUMAFEN, COMPOSITION AND RODENTICIDE BAIT COMPRISING SAME, AND METHOD FOR CONTROLLING TARGET RODENT PESTS” (priority 2015, published 2019).

For one data set, the system named is target rodent pests. Put plainly: Rodenticidal efficacy. The settings on record: relative to the other configurational stereoisomers; in words, no data shown. The data set is classed as in vivo.
Data set [1] is classed as in vivo, Sprague-Dawley rats. The settings on record: relative to the other configurational stereoisomers; in words. As for the experimental part: About 0.525 g (±0.025 g) of rat liver is weighed out accurately and placed in a 50 mL polypropylene tube. 10 mL of acetone are added and the suspension is homogenized using an Ultra-Turrax® homogenizer/disperser for a time of about 30 seconds. The homogenizer/disperser shaft is rinsed with hot water and then twice with 20 mL of acetone in a polypropylene tube. The homogenate is centrifuged for 5 minutes at a centrifugation speed of 3000 rpm (revolutions per minute). The supernatant is collected and transferred into a test tube. The sample is subjected to evaporation under a stream of nitrogen (N2) at a temperature of 40° C. so as to form a dry extract.
1 mL of acetonitrile is added to the tube containing the dry extract so as to dissolve it. […]
The configurational stereoisomers of flocoumafen are separated by high-pressure liquid chromatography using a LUX® Cellulose-4 chiral column (00F-4490-B0, Phenomenex, Le Pecq, France) as stationary phase and a mixture formed from acetonitrile (A) and water comprising 0.1% by volume of formic acid (B), with an A/B volume ratio of 92/8, as mobile phase with a flow rate of the liquid mobile phase in the chromatography column of 0.25 mL/minute. […] In particular, the MRM (“Multiple Reaction Monitoring”) transitions m/z 541.1→382.1 and m/z 541.1→161, corresponding to the flocoumafen signal, are detected. […]

With `O=c1oc2ccccc2c(O)c1C1CC(c2ccc(OCc3ccc(C(F)(F)F)cc3)cc2)Cc2ccccc21` (single isomer, unassigned) [Enantiomer E4, flocoumafen], the Rodenticidal efficacy entry with target rodent pests was “increased rodenticidal efficacy relative to the other configurational stereoisomers”. Moreover, the “Persistence in the liver” value in data set [1] is recorded as “more persistent in the liver of the target rodent pests”.
